Reference: patent publication US20250320213A1, “Nitrogen-Containing Heterocyclic Compounds” (Pfizer Inc., priority 2024, published 2025)

Target: T1, STAT6 (Homo sapiens, UniProt P42226)
T1 construct: stably transfected HaCaT keratinocyte cell line, which expresses NanoLuc luciferase reporter gene under the transcriptional control of the STAT6 responsive promoter; endogenous in cells; host or cells: HaCaT keratinocyte reporter cell line (stably transfected with a NanoLuc reporter)
T1 sequence (P42226 1-847): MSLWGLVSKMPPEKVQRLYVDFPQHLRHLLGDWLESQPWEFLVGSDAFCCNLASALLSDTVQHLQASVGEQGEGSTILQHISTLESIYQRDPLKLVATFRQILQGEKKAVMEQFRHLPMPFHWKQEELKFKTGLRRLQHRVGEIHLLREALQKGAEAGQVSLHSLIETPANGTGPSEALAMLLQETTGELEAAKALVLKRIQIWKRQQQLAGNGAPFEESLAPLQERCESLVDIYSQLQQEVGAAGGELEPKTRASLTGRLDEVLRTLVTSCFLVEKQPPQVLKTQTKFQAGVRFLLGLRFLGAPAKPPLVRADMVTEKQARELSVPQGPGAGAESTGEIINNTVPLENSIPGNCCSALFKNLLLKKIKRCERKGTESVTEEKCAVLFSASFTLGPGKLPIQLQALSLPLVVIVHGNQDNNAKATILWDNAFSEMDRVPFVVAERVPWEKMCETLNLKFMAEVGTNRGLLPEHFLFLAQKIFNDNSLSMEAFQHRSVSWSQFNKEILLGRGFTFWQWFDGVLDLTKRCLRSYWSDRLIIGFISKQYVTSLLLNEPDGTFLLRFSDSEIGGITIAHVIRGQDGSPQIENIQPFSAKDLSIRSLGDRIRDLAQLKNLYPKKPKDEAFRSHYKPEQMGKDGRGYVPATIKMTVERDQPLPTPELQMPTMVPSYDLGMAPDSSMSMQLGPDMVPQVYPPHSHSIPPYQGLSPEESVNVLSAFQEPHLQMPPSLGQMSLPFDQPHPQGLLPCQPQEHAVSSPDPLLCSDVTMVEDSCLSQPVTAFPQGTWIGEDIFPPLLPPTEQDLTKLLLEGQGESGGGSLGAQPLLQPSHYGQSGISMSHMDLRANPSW
Test: STAT6 Reporter Luciferase Assay (IL-13 stimulated HaCaT keratinocyte NanoLuc reporter cells)
Type: cell-based
Settings: IL-13 stimulated HaCaT STAT6 NanoLuc reporter cells; read-out: Reporter EC50
Experimental: Pharmacological measurements of STAT6 transcriptional activity through the IL-13-IL-13 receptor/IL-4 receptor pathway were made with a stably transfected HaCaT keratinocyte cell line, which expresses NanoLuc luciferase reporter gene under the transcriptional control of the STAT6 responsive promoter for IL-13Ra2. The readout of the STAT6 activity utilized Promega Nano-Glo Luciferase assay kit.
The reporter cells were cultured in a growth media comprised of DMEM High Glucose, no calcium and no glutamine, 10% heat inactivated fetal bovine serum (HI FBS), 1% 100× Glutamax, and 100 U/mL Penicillin-Streptomycin (units of penicillin in 1 mL of streptomycin). Seven thousand cells were plated in 25 microliter (μL) per well in a 384-well, white bottom, tissue culture plate. Cells were cultured overnight at 37° C. The next day, test compounds (solubilized and serially diluted in DMSO, in an 11 point, 4-fold dilution series in duplicate) were spotted, 60 nanoliters (nL) per well, into a 384 well v-bottom polypropylene plate. Thirty μL per well of 37° C. dosing media (Dulbecco's modified eagle medium (DMEM) High Glucose, no calcium and no glutamine with 2% HI FBS) was added to the compound plate. Growth media was removed from the cell plate, and the cells were washed with DPBS. Twenty μL per well of compounds diluted in dosing media were transferred from the compound plate to the cell plate and the compounds were further diluted with an additional 15 μL of dosing media in the cell plate: the cell plate was incubated for two hours at 37° C. After two hours, STAT6 activity was stimulated with the addition of 5 μL per well of IL-13 (R&D Systems) in dosing media with a final concentration of 0.12 nM IL13. Cells were incubated at 37° C. for 4 hours to allow for reporter gene expression, then all media was removed from the plate. The cell plates were treated with assay buffer and Luciferase substrate from Nano-Glo Luciferase Assay Kit for 15 min and then measured for luminescence on an EnVision 2105 multilabel reader (PerkinElmer).

EC50 [nM]	SMILES
90	CCC(=O)N1CCN(C(=O)c2ccc(N3CCc4c(c(C(=O)NCc5ccc(NC(=O)N(C)C)cc5)nn4C(C)C)C3)nc2)CC1 [Example 196, N-(4-(3,3-dimethylureido)benzyl)-1-isopropyl-5-(5-(4-propionylpiperazine-1-carbonyl)pyridin-2-yl)-4,5,6,7-tetrahydro-1H-pyrazolo[4,3-c]pyridine-3-carboxamide]
197	CC(C)n1nc(C(=O)NCc2ccc(NC(=O)N(C)C)cc2)c2c1CCN(c1ccc(C(=O)N3CCC[C@H]3C(N)=O)cn1)C2 [Example 197, (S)-5-(5-(2-carbamoylpyrrolidine-1-carbonyl)pyridin-2-yl)-N-(4-(3,3-dimethylureido)benzyl)-1-isopropyl-4,5,6,7-tetrahydro-1H-pyrazolo[4,3-c]pyridine-3-carboxamide]
125	COC1CCN(C(=O)c2ccc(N3CCc4c(c(C(=O)NCc5ccc(NC(=O)N(C)C)cc5)nn4C(C)C)C3)nc2)CC1 [Example 199, N-(4-(3,3-dimethylureido)benzyl)-1-isopropyl-5-(5-(4-methoxypiperidine-1-carbonyl)pyridin-2-yl)-4,5,6,7-tetrahydro-1H-pyrazolo[4,3-c]pyridine-3-carboxamide]
363	CC(=O)N1CCCN(C(=O)c2ccc(N3CCc4c(c(C(=O)NCc5ccc(NC(=O)N(C)C)cc5)nn4C(C)C)C3)nc2)CC1 [Example 200, 5-(5-(4-acetyl-1,4-diazepane-1-carbonyl)pyridin-2-yl)-N-(4-(3,3-dimethylureido)benzyl)-1-isopropyl-4,5,6,7-tetrahydro-1H-pyrazolo[4,3-c]pyridine-3-carboxamide]
343	CCO[C@H]1CCN(C(=O)c2ccc(N3CCc4c(c(C(=O)NCc5ccc(NC(=O)N(C)C)cc5)nn4C(C)C)C3)nc2)C1 [Example 201, (S)-N-(4-(3,3-dimethylureido)benzyl)-5-(5-(3-ethoxypyrrolidine-1-carbonyl)pyridin-2-yl)-1-isopropyl-4,5,6,7-tetrahydro-1H-pyrazolo[4,3-c]pyridine-3-carboxamide]
8080	COc1nc(N2CCc3c(c(C(=O)NCc4ccc(NC(=O)N(C)C)cc4)nn3C(C)C)C2)ccc1[C@]1(C)CNC(=O)C1 [Example 202, (R)-N-(4-(3,3-dimethylureido)benzyl)-1-isopropyl-5-(6-methoxy-5-(3-methyl-5-oxopyrrolidin-3-yl)pyridin-2-yl)-4,5,6,7-tetrahydro-1H-pyrazolo[4,3-c]pyridine-3-carboxamide]
97	CC(C)n1nc(C(=O)NCc2ccc(NC(=O)N(C)C)cc2)c2c1CCN(c1ccc(C(=O)N3CCOCC3)cn1)C2 [Example 206, N-(4-(3,3-dimethylureido)benzyl)-1-isopropyl-5-(5-(morpholine-4-carbonyl)pyridin-2-yl)-4,5,6,7-tetrahydro-1H-pyrazolo[4,3-c]pyridine-3-carboxamide]
272	CC(C)n1nc(C(=O)NCc2ccc(NC(=O)N(C)C)cc2)c2c1CCN(c1ccc(C(=O)N3C[C@@H](C)O[C@@H](C)C3)cn1)C2 [Example 207, 5-(5-((2R,6S)-2,6-dimethylmorpholine-4-carbonyl)pyridin-2-yl)-N-(4-(3,3-dimethylureido)benzyl)-1-isopropyl-4,5,6,7-tetrahydro-1H-pyrazolo[4,3-c]pyridine-3-carboxamide]
692	COC[C@@H]1CCCN1C(=O)c1ccc(N2CCc3c(c(C(=O)NCc4ccc(NC(=O)N(C)C)cc4)nn3C(C)C)C2)nc1 [Example 209, (S)-N-(4-(3,3-dimethylureido)benzyl)-1-isopropyl-5-(5-(2-(methoxymethyl)pyrrolidine-1-carbonyl)pyridin-2-yl)-4,5,6,7-tetrahydro-1H-pyrazolo[4,3-c]pyridine-3-carboxamide]
1060	CC(C)n1nc(C(=O)NCc2ccc(NC(=O)N(C)C)cc2)c2c1CCN(c1ccc(C(=O)N3CC(C#N)C3)cn1)C2 [Example 210, 5-(5-(3-cyanoazetidine-1-carbonyl)pyridin-2-yl)-N-(4-(3,3-dimethylureido)benzyl)-1-isopropyl-4,5,6,7-tetrahydro-1H-pyrazolo[4,3-c]pyridine-3-carboxamide]
934	CC(=O)N[C@@H]1CCN(C(=O)c2ccc(N3CCc4c(c(C(=O)NCc5ccc(NC(=O)N(C)C)cc5)nn4C(C)C)C3)nc2)C1 [Example 211, (R)-5-(5-(3-acetamidopyrrolidine-1-carbonyl)pyridin-2-yl)-N-(4-(3,3-dimethylureido)benzyl)-1-isopropyl-4,5,6,7-tetrahydro-1H-pyrazolo[4,3-c]pyridine-3-carboxamide]
718	CCN(CC(=O)NC)C(=O)c1ccc(N2CCc3c(c(C(=O)NCc4ccc(NC(=O)N(C)C)cc4)nn3C(C)C)C2)nc1 [Example 213, N-(4-(3,3-dimethylureido)benzyl)-5-(5-(ethyl(2-(methylamino)-2-oxoethyl)carbamoyl)pyridin-2-yl)-1-isopropyl-4,5,6,7-tetrahydro-1H-pyrazolo[4,3-c]pyridine-3-carboxamide]
502	CC(C)n1nc(C(=O)NCc2ccc(NC(=O)N(C)C)cc2)c2c1CCN(c1ccc(C(=O)N3CCNC(=O)CC3)cn1)C2 [Example 214, N-(4-(3,3-dimethylureido)benzyl)-1-isopropyl-5-(5-(5-oxo-1,4-diazepane-1-carbonyl)pyridin-2-yl)-4,5,6,7-tetrahydro-1H-pyrazolo[4,3-c]pyridine-3-carboxamide]
276	CC(C)n1nc(C(=O)NCc2ccc(NC(=O)N(C)C)cc2)c2c1CCN(c1ccc(C(=O)N3CC(O)C3)cn1)C2 [Example 215, N-(4-(3,3-dimethylureido)benzyl)-5-(5-(3-hydroxyazetidine-1-carbonyl)pyridin-2-yl)-1-isopropyl-4,5,6,7-tetrahydro-1H-pyrazolo[4,3-c]pyridine-3-carboxamide]
546	CO[C@@H]1CCN(C(=O)c2ccc(N3CCc4c(c(C(=O)NCc5ccc(NC(=O)N(C)C)cc5)nn4C(C)C)C3)nc2)C1 [Example 216, (R)-N-(4-(3,3-dimethylureido)benzyl)-1-isopropyl-5-(5-(3-methoxypyrrolidine-1-carbonyl)pyridin-2-yl)-4,5,6,7-tetrahydro-1H-pyrazolo[4,3-c]pyridine-3-carboxamide]
272	CC(C)n1nc(C(=O)NCc2ccc(NC(=O)N(C)C)cc2)c2c1CCN(c1ccc(C(=O)N3CCNC(=O)C3(C)C)cn1)C2 [Example 217, 5-(5-(2,2-dimethyl-3-oxopiperazine-1-carbonyl)pyridin-2-yl)-N-(4-(3,3-dimethylureido)benzyl)-1-isopropyl-4,5,6,7-tetrahydro-1H-pyrazolo[4,3-c]pyridine-3-carboxamide]
2380	CC(C)n1nc(C(=O)NCc2ccc(NC(=O)N(C)C)cc2)c2c1CCN(c1ccc(C(=O)N3CCC[C@@H]3C(N)=O)cn1)C2 [Example 218, (R)-5-(5-(2-carbamoylpyrrolidine-1-carbonyl)pyridin-2-yl)-N-(4-(3,3-dimethylureido)benzyl)-1-isopropyl-4,5,6,7-tetrahydro-1H-pyrazolo[4,3-c]pyridine-3-carboxamide]

SMILES	EC50 [nM]
CC(C)n1nc(C(=O)NCc2ccc(NC(=O)N(C)C)cc2)c2c1CCN(c1ccc(C(=O)N3C[C@H]4C[C@@H](C3)O4)cn1)C2 [Example 212, 5-(5-((1R,5S)-6-oxa-3-azabicyclo[3.1.1]heptane-3-carbonyl)pyridin-2-yl)-N-(4-(3,3-dimethylureido)benzyl)-1-isopropyl-4,5,6,7-tetrahydro-1H-pyrazolo[4,3-c]pyridine-3-carboxamide]	278
